Measured values taken from patent publication US11655256B1, “Processes for making a solid-state form of relugolix” (Johnson Matthey Public Limited Company, priority 2020, dated 2023).

Columns and labels:
Type in all cases: physicochemical
[1] = Stability on prolonged drying under vacuum; settings: about 2 days under vacuum at about 70° C.
Experimental: Form A of the DMF solvate of relugolix is stable, i.e., it is unchanged after prolonged drying (e.g., about 2 days) under vacuum at about 70° C.

[2] = Stability under high humidity at ambient temperatures; settings: about 97% humidity, over a month
[3] = Dynamic vapor sorption (DVS)
Experimental: DVS samples are analyzed using a TA Instruments Q5000SA gravimetric water sorption analyzer. The relative humidity is adjusted between about 0-95% and the weight of the sample is continuously monitored and recorded with respect to the relative humidity and time.

## CONC(=O)Nc1ccc(-c2sc3c(c2CN(C)C)c(=O)n(-c2ccc(OC)nn2)c(=O)n3Cc2c(F)cccc2F)cc1 [Form A of the DMF solvate of relugolix, 1-[4-[1-[(2,6-difluorophenyl)-methyl]-5-[(dimethylamino)methyl]-3-(6-methoxypyridazin-3-yl)-2,4-dioxothieno-[2,3-d]pyrimidin-6-yl]phenyl]-3-methoxyurea]
[1]
  stability after prolonged drying: unchanged
[2]
  stability under humidity: remains unchanged
[3]; at about 90% RH
  DVS loss of mass: about 1%

## CONC(=O)Nc1ccc(-c2sc3c(c2CN(C)C)c(=O)n(-c2ccc(OC)nn2)c(=O)n3Cc2c(F)cccc2F)cc1 [Form B of anhydrous relugolix, 1-[4-[1-[(2,6-difluorophenyl)-methyl]-5-[(dimethylamino)methyl]-3-(6-methoxypyridazin-3-yl)-2,4-dioxothieno-[2,3-d]pyrimidin-6-yl]phenyl]-3-methoxyurea]
[3]; evidenced by XRPD after DVS
  stability at various humidity levels: remains stable
[3]; relative humidity levels between about 0 to about 95%
  DVS weight loss: about 7%

## CONC(=O)Nc1ccc(-c2sc3c(c2CN(C)C)c(=O)n(-c2ccc(OC)nn2)c(=O)n3Cc2c(F)cccc2F)cc1 [Form T of anhydrous relugolix, 1-[4-[1-[(2,6-difluorophenyl)-methyl]-5-[(dimethylamino)methyl]-3-(6-methoxypyridazin-3-yl)-2,4-dioxothieno-[2,3-d]pyrimidin-6-yl]phenyl]-3-methoxyurea]
[3]; relative humidity (RH) levels between 0 to 90%
  DVS weight % change: about 6%
